Measured values as given in patent publication US8741940B2, “Microbicidal composition” (Rohm and Haas Company, priority 2005, dated 2014).
Where two headings read alike, the source gives them in different places.

Key:
Format in all cases: cell-based
[1] = tested on: Escherichia coli (E. coli—ATCC #8739); assay: Synergy test, microtiter plate high resolution MIC assay, bacterium in M9GY medium; parameters: key to SI (synergy index): SI = Qa/QA + Qb/QB; >1 antagonism, lower SI = greater synergy; Qa (First Component A) / Qb (Second Component B): unit: ppm; settings: for MIC of the component acting alone (QA / QB): 30° C.; for MIC: Escherichia coli, read-out: Qb (concentration of second component producing the end point, MIC)
Method: (§1) When the sum of Qa/QA and Qb/QB is greater than one, antagonism is indicated. […] The lower the SI, the greater the synergy shown by that particular mixture. The minimum inhibitory concentration (MIC) of a microbicide is the lowest concentration tested under a specific set of conditions that prevents the growth of added microorganisms.
(§2) Synergy tests were conducted using standard microtiter plate assays with media designed for optimal growth of the test microorganism. Minimal salt medium supplemented with 0.2% glucose and 0.1% yeast extract (M9GY medium) was used for testing bacteria; Potato Dextrose Broth (PDB medium) was used for testing yeast and mold. In this method, a wide range of combinations of microbicides and other personal care raw materials was tested by conducting high resolution MIC assays in the presence of various concentrations of BBIT or MBIT. High resolution MICs were determined by adding varying amounts of microbicide to one column of a microtitre plate and doing subsequent […] dilutions using an automated liquid handling system to obtain a series of endpoints ranging from 2 ppm to 10,000 ppm active ingredient.
(§3) The bacteria were used at a concentration of about 5 ×10^6 bacteria per mL and the yeast and mold at 5×10^5 fungi per mL. These microorganisms are representative of natural contaminants in many consumer and industrial applications. […] (yeast and mold) or 30° C. (bacteria).
(§4) In each test, First Component (A) was BBIT and the Second Component (B) was the other commercial microbicide.
(§5) In each test, First Component (A) was MBIT and the Second Component (B) was the other commercial microbicide.

[2] = tested on: Candida albicans (C. albicans—ATCC 10231); assay: Synergy test, microtiter plate high resolution MIC assay, yeast in PDB medium; parameters: key to SI (synergy index): SI = Qa/QA + Qb/QB; >1 antagonism, lower SI = greater synergy; Qb (Second Component B) / Qa (First Component A): unit: ppm; settings: for MIC of the component acting alone (QA / QB): 25° C.; for MIC: Candida albicans, read-out: Qb (concentration of second component producing the end point, MIC)
Method: as §1, §2, §3, §4, §5

[3] = tested on: Aspergillus niger (A. niger—ATCC 16404); assay: Synergy test, microtiter plate high resolution MIC assay, mold in PDB medium; parameters: key to SI (synergy index): SI = Qa/QA + Qb/QB; >1 antagonism, lower SI = greater synergy; Qb (Second Component B) / Qa (First Component A): unit: ppm; settings: for MIC of the component acting alone (QA / QB): 25° C.; for MIC: Aspergillus niger, read-out: Qb (concentration of second component producing the end point, MIC)
Method: as §1, §2, §3, §4, §5

[4] = A=MBIT, B=Caprylyl glycol, E. coli 8739 - M9GY, 24 hours
[5] = A=MBIT, B=Caprylyl glycol, C. albicans 10231 - PDB, 24 hours
[6] = C. albicans 10231, PDB, 24 hours
[7] = A=MBIT, B=Caprylyl glycol, A. niger 16404 - PDB, 4 days
[8] = C. albicans 10231, PDB, 24 hours, alone where Qa = 0, otherwise in the mixture
[9] = A. niger 16404, PDB, 3 days, alone where Qa = 0, otherwise in the mixture
[10] = A=MBIT, B=DMDM Hydantoin (DMDMH), E. coli 8739 - M9GY, 24 hours
[11] = A=MBIT, B=DMDM Hydantoin (DMDMH), C. albicans 10231 - PDB, 24 hours
[12] = A=MBIT, B=DMDM Hydantoin (DMDMH), A. niger 16404 - PDB, 3 days
[13] = A=MBIT, B=Benzalkonium chloride (Hyamine 3500), E. coli 8739 - M9GY, 24 hours
[14] = A=MBIT, B=Benzalkonium chloride (Hyamine 3500), C. albicans 10231 - PDB, 24 hours
[15] = A=MBIT, B=Benzalkonium chloride (Hyamine 3500), A. niger 16404 - PDB, 4 days
[16] = A=MBIT, B=dithio-2,2′-bis(N-methylbenzamide) (DTBMA), E. coli 8739 - M9GY, 24 hours
[17] = A=MBIT, B=dithio-2,2′-bis(N-methylbenzamide) (DTBMA), C. albicans 10231 - PDB, 24 hours
[18] = A=MBIT, B=dithio-2,2′-bis(N-methylbenzamide) (DTBMA), A. niger 16404 - PDB, 3 days
[19] = E. coli 8739, M9GY, 24 hours, alone where Qa = 0, otherwise in the mixture

## CCCCCCC(O)CO (centres unmarked) [Caprylyl glycol]
[1]; [4]
  Qb (Second Component B): 2000
  SI (synergy index): 1.00
[1]; E. coli 8739, M9GY, 24 hours
  MIC of the component acting alone (QA / QB): 2000 ppm
[2]; [5]
  Qb (Second Component B): 4000
  SI (synergy index): 1.00
[2]; [6]
  MIC of the component acting alone (QA / QB): 3000 ppm
[3]; A. niger 16404, PDB, 7 days
  MIC of the component acting alone (QA / QB): 3000 ppm
[3]; [7]
  Qb (Second Component B): 1000
  SI (synergy index): 1.00

## linoleamidopropyl PG-dimonium chloride phosphate
[1]; E. coli 8739, M9GY, 48 hours
  SI (synergy index): 1.00
[1]; E. coli 8739, M9GY, 48 hours, alone where Qa = 0, otherwise in the mixture
  Qb (concentration of second component producing the end point, MIC): 500 ppm
[1]; E. coli 8739 - M9GY, 48 hours, BBIT with Phospholipid EFA
  SI: 1.00
[2]; [6]
  SI (synergy index): 1.00
[2]; [8]
  Qb (concentration of second component producing the end point, MIC): 1000 ppm
[2]; C. albicans 10231 - PDB, 24 hours, BBIT with Phospholipid EFA
  SI: 1.00
[3]; A. niger 16404, PDB, 3 days
  SI (synergy index): 1.00
[3]; [9]
  Qb (concentration of second component producing the end point, MIC): 2000 ppm
[3]; A. niger 16404 - PDB, 4 days, BBIT with Phospholipid EFA
  SI: 1.00

## CCCCC(CC)CN1CN(CC(CC)CCCC)CC(C)(N)C1 (centres unmarked) [Hexetidine]
[1]; E. coli 8739, M9GY, 72 hours
  SI (synergy index): 1.00
[1]; E. coli 8739 - M9GY, 72 hours, BBIT + hexetidine
  SI: 1.00
[1]; E. coli 8739 - M9GY, 72 hours, hexetidine alone (Qa 0) or in mixture with BBIT
  Qb (Second Component B = Hexetidine): 200
[1]; ATCC8739, E. coli 8739, M9GY, 72 hours, alone where Qa = 0, otherwise in the mixture
  MIC: 80 µg/mL
[2]; C. albicans 10231, PDB, 72 hours
  SI (synergy index): 1.00
[2]; C. albicans 10231 - PDB, 72 hours, BBIT + hexetidine
  SI: 1.00
[2]; C. albicans 10231 - PDB, 72 hours, hexetidine alone (Qa 0) or in mixture with BBIT
  Qb (Second Component B = Hexetidine): 100
[2]; ATCC10231, C. albicans 10231, PDB, 72 hours, alone where Qa = 0, otherwise in the mixture
  MIC: 80 µg/mL
[3]; A. niger 16404, PDB, 3 days
  SI (synergy index): 1.00
[3]; A. niger 16404 - PDB, 4 days, BBIT + hexetidine
  SI: 1.00
[3]; A. niger 16404 - PDB, 4 days, hexetidine alone (Qa 0) or in mixture with BBIT
  Qb (Second Component B = Hexetidine): 100
[3]; ATCC16404, 72 h, A. niger 16404, PDB, 3 days, alone where Qa = 0, otherwise in the mixture
  MIC: 200 µg/mL

## CC1(C)C(=O)N(CO)C(=O)N1CO [DMDM Hydantoin, 1,3-dimethylol-5,5-dimethylhydantoin]
[1]; [10]
  Qb (Second Component B): 50
  SI (synergy index): 1.00
[1]; E. coli 8739 - M9GY, 72 hours, BBIT + DMDMH
  SI: 1.00
[1]; E. coli 8739 - M9GY, 72 hours, DMDMH alone (Qa 0) or in mixture with BBIT
  Qb (Second Component B = DMDMH): 200
[2]; [11]
  Qb (Second Component B): 3000
  SI (synergy index): 1.00
[2]; C. albicans 10231 - PDB, 24 hours, BBIT + DMDMH
  SI: 1.00
[2]; C. albicans 10231 - PDB, 24 hours, DMDMH alone (Qa 0) or in mixture with BBIT
  Qb (Second Component B = DMDMH): 3000
[3]; A. niger 16404 - PDB, 7 days, BBIT + DMDMH
  SI: 1.00
[3]; A. niger 16404 - PDB, 7 days, DMDMH alone (Qa 0) or in mixture with BBIT
  Qb (Second Component B = DMDMH): 1000
[3]; [12]
  Qb (Second Component B): 1000
  SI (synergy index): 1.00

## C/C=C/C=C/C(=O)[O-].[K+] [Potassium sorbate]
[1]
  SI: 1.00
  SI (synergy index): 1.00
[1]; ATCC8739, 48 h
  MIC: 20000 µg/mL
[2]
  SI: 1.00
  SI (synergy index): 1.00
[2]; ATCC10231, 24 h
  MIC: 400 µg/mL
[3]
  SI: 1.00
  SI (synergy index): 1.00
[3]; ATCC16404, 96 h
  MIC: 10000 µg/mL

## Benzalkonium chloride
[1]; [13]
  Qb (Second Component B): 10
  SI (synergy index): 1.00
[1]; E. coli 8739, M9GY, 48 hours
  MIC of the component acting alone (QA / QB): 3 ppm
[2]; [14]
  Qb (Second Component B): 60
  SI (synergy index): 1.00
[2]; [6]
  MIC of the component acting alone (QA / QB): 60 ppm
[3]; A. niger 16404, PDB, 7 days
  MIC of the component acting alone (QA / QB): 200 ppm
[3]; [15]
  Qb (Second Component B): 200
  SI (synergy index): 1.00

## CNC(=O)c1ccccc1SSc1ccccc1C(=O)NC [DTBMA, dithio-2,2′-bis(N-methylbenzamide)]
[1]; [16]
  Qb (Second Component B): 80
  SI (synergy index): 1.00
[1]; E. coli 8739 - M9GY, 48 hours, BBIT + DTBMA
  SI: 1.00
[1]; E. coli 8739 - M9GY, 48 hours, DTBMA alone (Qa 0) or in mixture with BBIT
  Qb (Second Component B = DTBMA): 60
[2]; [17]
  Qb (Second Component B): 2000
  SI (synergy index): 1.00
[2]; C. albicans 10231 - PDB, 24 hours, BBIT + DTBMA
  SI: 1.00
[2]; C. albicans 10231 - PDB, 24 hours, DTBMA alone (Qa 0) or in mixture with BBIT
  Qb (Second Component B = DTBMA): 2000
[3]; A. niger 16404 - PDB, 7 days, BBIT + DTBMA
  SI: 1.00
[3]; A. niger 16404 - PDB, 7 days, DTBMA alone (Qa 0) or in mixture with BBIT
  Qb (Second Component B = DTBMA): 1000
[3]; [18]
  Qb (Second Component B): 800
  SI (synergy index): 1.00

## Hexylene glycol
[1]; E. coli 8739, M9GY, 24 hours
  SI (synergy index): 1.00
[1]; [19]
  Qb (concentration of second component producing the end point, MIC): 20000 ppm
[1]; E. coli 8739 - M9GY, 24 hours, BBIT + hexylene glycol
  SI: 1.00
[1]; E. coli 8739 - M9GY, 24 hours, hexylene glycol alone (Qa 0) or in mixture with BBIT
  Qb (Second Component B = Hexylene glycol): 20000
[2]; [6]
  SI (synergy index): 1.00
[2]; [8]
  Qb (concentration of second component producing the end point, MIC): 20000 ppm
[2]; C. albicans 10231 - PDB, 24 hours, BBIT + hexylene glycol
  SI: 1.00
[2]; C. albicans 10231 - PDB, 24 hours, hexylene glycol alone (Qa 0) or in mixture with BBIT
  Qb (Second Component B = Hexylene glycol): 20000
[3]; A. niger 16404, PDB, 3 days
  SI (synergy index): 1.00
[3]; [9]
  Qb (concentration of second component producing the end point, MIC): 20000 ppm
[3]; A. niger 16404 - PDB, 3 days, BBIT + hexylene glycol
  SI: 1.00
[3]; A. niger 16404 - PDB, 3 days, hexylene glycol alone (Qa 0) or in mixture with BBIT
  Qb (Second Component B = Hexylene glycol): 20000

## O=C(O)CN(CCN(CC(=O)O)CC(=O)O)CC(=O)O [EDTA, Ethylenediamine tetraacetic acid]
[1]
  Qb (Second Component B = EDTA): 40000
[1]; E. coli 8739 - M9GY, 72 hours, BBIT + EDTA
  SI: 1.00
[2]
  Qb (Second Component B = EDTA): 600
[2]; C. albicans 10231 - PDB, 24 hours, BBIT + EDTA
  SI: 1.00
[3]
  Qb (Second Component B = EDTA): 1600
[3]; A. niger 16404 - PDB, 7 days, BBIT + EDTA
  SI: 1.00

## N=C(N)c1ccc(OCCCCCCOc2ccc(C(=N)N)cc2)cc1.O=S(=O)(O)CCO.O=S(=O)(O)CCO [Hexamidine diisethionate]
[1]; E. coli 8739, M9GY, 24 hours
  SI (synergy index): 1.00
[1]; [19]
  Qb (concentration of second component producing the end point, MIC): 8 ppm
[1]; E. coli 8739 - M9GY, 48 hours, BBIT + hexamidine diisethionate
  SI: 1.00
[1]; E. coli 8739 - M9GY, 48 hours, hexamidine diisethionate alone (Qa 0) or in mixture with BBIT
  Qb (Second Component B = Hexamidine diisethionate): 100
[2]; [6]
  SI (synergy index): 1.00
[2]; [8]
  Qb (concentration of second component producing the end point, MIC): 10 ppm
[2]; C. albicans 10231 - PDB, 24 hours, BBIT + hexamidine diisethionate
  SI: 1.00
[2]; C. albicans 10231 - PDB, 24 hours, hexamidine diisethionate alone (Qa 0) or in mixture with BBIT
  Qb (Second Component B = Hexamidine diisethionate): 10
